Data taken from patent publication US8093234B2, “Method of increasing thymic output in HIV-negative patients by treatment with antiretroviral agents” (Mayo Foundation For Medical Education and Research, priority 2005, dated 2012).
“And” between values parts separate entries of the source, which are not always exact repeats. Identical values can stand only once. “Also recorded” adds a separate entry of the source.

How the values were obtained:
[1] = test system: Kaposi's sarcoma; conditions: mice implanted with Kaposi's sarcoma; cited from earlier work
[2] = test system: adult T-cell leukemia cells; conditions: NOD/SCID mice implanted with adult T-cell leukemia cells; cited from earlier work
[3] = Side-effect monitoring in the nelfinavir trial in HIV-negative individuals; assay type: in vivo, human
Description: (§1) Following approval by the Mayo Institutional Review Board, peripheral blood was sampled from 46 healthy blood donors older than 18 years of age for baseline TREC analysis. For the separate nelfinavir trial, 15 HIV-negative individuals with no active illness older than 18 years of age were given nelfinavir, 1250 mg orally, twice a day for 21 days. Blood for TREC analysis was obtained before therapy and on days 3, 5, 7, 14, and 21 after starting therapy. At each blood draw, side-effects were monitored and recorded from each subject. Severity of diarrhea was graded as: Grade 0—None; Grade 1—increase of 4 stools/day over pretreatment; Grade 2—increase of 4-6 stools/day, or nocturnal stools; Grade 3—increase of 7 stools/day or incontinence, or dehydration episode requiring parenteral support; Grade 4—episode of hemodynamic collapse requiring intensive care.

[4] = test system: thymic derived naïve T-cell numbers in the peripheral blood; assay: TREC analysis (sjTREC/CCR5 real-time PCR) of peripheral blood in HIV-negative volunteers on nelfinavir mono-therapy; assay type: in vivo, human
Description: as §1
TREC Analysis: DNA was isolated from peripheral blood mononuclear cells (PBMC) using an QIAamp Blood Mini DNA Kit (Qiagen) and assessed for signal joint (sj) TREC content relative to genomic CCR5 copies by real-time PCR in a spectroflourometric thermal cycler (ABI PRISM 7700 or 7900, PE Applied Biosystems). SjTREC reactions contained 12.5 pmol primers (forward […] [SEQ ID NO:1]), reverse […] [SEQ ID NO:2]) 3 pmoles TAQMAN probe (FAM-[…]-TAMRA [SEQ ID NO:3]), 1× TAQMAN Universal PCR Master Mix (PE Applied Biosystems), and 50 to 400 ng of template DNA in a total volume of 25 μl. CCR5 reactions contained 12.5 pmol primers (forward […] [SEQ ID NO:4], and reverse […] [SEQ ID NO:5]), 3 pmoles TAQMAN probe (FAM-[…]-TAMRA [SEQ ID NO:6]),1× TAQMAN Universal PCR Master Mix, and 50-400 ng of template of genomic DNA in a total volume of 25 μl. Thermal cycling conditions consisted of a 2-minute incubation at 50° C. and an initial denaturation/activation step at 95° C. for 10 minutes, followed by 40 cycles of 95° C. for 15 seconds and 60° C. for 1 minute in a microplate format. For each plate of reactions, standard curves were generated with 1-100,000 copies of human sjTREC plasmid (provided by Dr. D. Douek, NIH) and human CCR5 plasmid (cloned by RT-PCR into pCI) in order to calculate copies of TREC versus CCR5.
Statistical analysis: Experiments from every figure were performed in duplicate and repeated at least twice. All measurements are presented as means and standard deviations with statistical comparisons made between baseline and day 21 TREC/CCR5 measurements using the Student's t test for paired observations. For FIG. 2, change in baseline to day 21 TREC/CCR5 levels were stratified according to subjects age with 2 subjects <40, 2 subjects 40-65, and 11 subjects >65 years old.

Row | SMILES | tumor response [1] | tumor growth [2] | clinical tolerability ([3]; 1250 mg orally twice a day for 21 days) | subjects who completed the 21 days of therapy ([3]; 15 subjects) | subjects who experienced Grade 1 or 2 diarrhea ([3]; six of 15 subjects) [%] | volunteers who did not increase TREC numbers following 21 days ([4]; 15 subjects, 21 days) | volunteers who responded with increases in TREC numbers from baseline to day 21 ([4]; 15 subjects, 21 days) | effect on TREC levels / TREC positive naïve T-cell number ([4]; HIV-negative adults, mono-therapy for 21 days) | median increase in TRECs from baseline to day 21 in responders ([4]; eight responding volunteers, p<0.02) [copies TREC/CCR5] | change between baseline and day 21 TREC/CCR5 levels ([4]; entire cohort analyzed) | Day 21/0 TREC ([4]; individual subjects 1-15, nelfinavir 1250 mg orally twice a day for 21 days) | patients in whom TREC copies/copies CCR5 increased ([4]; of 15 subjects, p<0.02) [patients] | patients in whom TREC copies/copies CCR5 did not change ([4]; of 15 subjects, p=NS) [patients] | change in TREC levels between baseline (day 0) and days 3, 5, 7 or 14 ([4]; paired analysis) | average increase in TREC levels ([4]; subjects 40-65 years) [TREC/CCR5 copies] | average change in TREC levels ([4]; subjects greater than 65 years) [TREC/CCR5 copies] | average increase in TREC levels ([4]; subjects less than 40 years) [TREC/CCR5 copies]
1 | CC(C)c1nc(CN(C)C(=O)N[C@H](C(=O)N[C@@H](Cc2ccccc2)C[C@H](O)[C@H](Cc2ccccc2)NC(=O)OCc2cncs2)C(C)C)cs1 [Ritonavir] | significant tumor regression | reduced tumor growth | – | – | – | – | – | – | – | – | – | – | – | – | – | – | –
2 | Cc1c(O)cccc1C(=O)N[C@@H](CSc1ccccc1)[C@H](O)CN1C[C@H]2CCCC[C@H]2C[C@H]1C(=O)NC(C)(C)C [nelfinavir] | – | – | clinically well tolerated | all but one subject | 40 | 47 % of total | 53 % of total | induces an increase in TREC levels in a subset of healthy adults; also recorded: increases TREC positive naïve T-cell number | 1.2 | no change | 0.74 and 1.18 and 0.24 and 1.25 and 1.01 and 0.72 and 1.0 and 1.36 and 1.06 and 2.32 and 1.88 and 0.59 and 0.29 and 0.38 and 0.55 | 8 | 7 | No significant change | 0.80 | 0.89 | 1.2
